Earlier results on one molecule are cited in publication PMC12388126, “Photochemically Assisted Synthesis of Thienobenzotriazole-Based Dual Cholinesterase Inhibitors” (Molecules, 2025).

pIC50: −log10 of the molar value.

A word on the pIC50: it is −log10 of the IC50, conventionally taken in molar units.

In this data set the test system is LPS-induced TNF-α production. Also on record: method as in PMID 40732321. The conditions noted are these: read-out: IC50, inhibition of LPS-induced TNF-α production; cited from earlier work.

Consider `Cc1ccc(C[n+]2nn(Cc3cccc(F)c3)c3c4ccsc4ccc32)cc1` [F], for which the pIC50 was 6.18.
